In US20230173089A1, “Q-ER PEPTIDE” (Biotempt B.V., priority 2019, published 2023):
Read-outs that look alike come from different tables or passages of the source.

Key:
[1] = test system: Wistar rats with hemorrhagic shock; assay: hemorrhagic shock and resuscitation in rats (Example 15, SIRS); type: in vivo, rat; conditions: single injection 30 minutes after induction of hemorrhagic shock
Description: Severe hemorrhagic shock followed by resuscitation induces a massive inflammatory response, which may culminate into systemic inflammatory response syndrome, multiple organ dysfunction syndrome and finally death. Treatments that effectively prevent this inflammation are limited so far. […] Considering this powerful anti-inflammatory effect, it was investigated whether administration of 0.5 ml i.p. of synthetic heptapeptide SEQ ID NO:5 (AQGVAPG), SEQ ID NO:6 (LQGVAPG), SEQ ID NO:7 (AQGVLPG), SEQ ID NO:8 (LQGVLPG), dissolved in 0.9% NaCl at a concentration of 25 mg/ml, or vehicle (0.9% NaCl), respectively, during the SIRS-phase of hemorrhagic shock, is able to attenuate the inflammatory response associated with this condition.
Hemorrhagic shock is induced in groups of 6 rats for 60 minutes by blood withdrawal until a mean arterial pressure of 40 mmHg is reached. Thirty minutes after induction of hemorrhagic shock, rats received a single injection with one of synthetic heptapeptide SEQ ID NO:5 (AQGVAPG), SEQ ID NO:6 (LQGVAPG), SEQ ID NO:7 (AQGVLPG), SEQ ID NO:8 (LQGVLPG), or 0.9% NaCl solution, as control. Treatment with synthetic heptapeptide SEQ ID NO:5 (AQGVAPG), SEQ ID NO:6 (LQGVAPG), SEQ ID NO:7 (AQGVLPG), SEQ ID NO:8 (LQGVLPG) prevents systemic release of TNF-α and IL-6 and is associated with reduced TNF-α, IL-6 and E-selectin mRNA transcript levels in the liver, with reduced neutrophil infiltration into the liver and is associated with reduced liver damage.
Animals. Adult male specific pathogen-free Wistar rats weighing 350-400 g are used. Rats are housed under barrier conditions at 25° C. with a twelve-hour light/dark cycle, and are allowed food and water ad libitum. The experimental protocol adheres to the rules laid down in national law that serves the implementation of “Guidelines on the protection of experimental animals” by the Council of Europe (1986), Directive 86/609/EC. hCG-related synthetic oligopeptides. Rats are food deprived overnight before the start of the experiment, but are allowed water ad libitum. Rats are anesthetized using a mixture of N2 O/O2 /isoflurane (Pharmachemie B.V., Haarlem, The Netherlands). Body temperature is continuously maintained at 37.5° C. by placing the rats on a thermo controlled “half-pipe” (UNO, Rotterdam, The Netherlands). Endotracheal intubation is performed, and rats are ventilated at 60 breaths per minute with a mixture of N2 O/O2 /isoflurane. Polyethylene tubes (PE-50, Becton Dickinson; St. Michielsgestel, The Netherlands) are flushed with heparin and placed via the right carotid artery in the aorta and in the right internal jugular vein. A 5 cm midline laparotomy is performed and a supra pubic catheter is inserted to monitor urine production. Hemorrhagic shock is induced by blood withdrawal, reducing the circulating blood volume until a mean arterial pressure (MAP) of 40 mmHg is reached. This level of hypotension is maintained for 60 minutes. Thirty minutes after the induction of hemorrhagic shock, rats received a single intravenous (IV) bolus injection of heptapeptide solution or vehicle. Sixty minutes after induction of hemorrhagic shock, rats are resuscitated by four times their shed blood volume over a period of 30 minutes to normalize the MAP, and monitored for another 120 minutes after which they are sacrificed. The rats receive no heparin before or during the experiment. Sham animals are subjected to the same surgical procedure as the hemorrhagic shock animals, but without blood withdrawal and administration of heptapeptide.

[2] = test system: non-obese diabetic (NOD) mouse; assay: type 1 diabetes development in NOD mice; type: in vivo; conditions: 250 µg i.p. three times per week, female NOD mice from 14 weeks, max five weeks
Text: The non-obese diabetic (NOD) mouse spontaneously develops type 1 diabetes (T1D) and has served as a model for understanding the genetic and immunological basis, and treatment, of T1D. NOD mice are used in these studies. Most diabetic NOD mice suffer from insulin deficiency diabetes, with the underlying cause of the pancreatic beta-cell loss or destruction most likely a result of an inflammatory process in the micro-vasculature surrounding endocrine beta-cell tissues and genetically accelerated autoimmunity is suspected. Diabetes is assessed by measurement of the venous blood glucose level using an Abbott Medisense Precision glucometer. Mice are considered diabetic after two consecutive glucose measurements ≥11 mmol/l (200 mg/dl). Onset of diabetes is dated from the first consecutive reading of ≥11 mmol/l. In vivo treatment: groups of 14 weeks-old female NOD mice (n=12 per group) are treated with synthetic peptide SEQ ID NO:5 (AQGVAPG), SEQ ID NO:6 (LQGVAPG), SEQ ID NO:7 (AQGVLPG), SEQ ID NO:8 (LQGVLPG) or vehicle (PBS), respectively. Treatment is done by injecting 250 µg peptide diluted in PBS three times per week intraperitoneally (i.p.). Control mice are treated with PBS only. The treatment is discontinued when all PBS treated NOD mice in the experiment have developed diabetes. This is generally at the age of 19 weeks. The peptide and PBS treatments are done for a maximum of five weeks. In instances of hyperglycaemia of ≥20 mmol/l the mice are killed to avoid prolonged discomfort. The remainder mice are kept alive up to the age of 35 weeks without any further treatment.

[3] = test system: high-dose lipopolysaccharide induced inflammation; conditions: previous study; cited from earlier work
[4] = test system: allogenic kidney transplantation recipients; conditions: 50 mg/kg twice daily i.p.; cited from earlier work
[5] = test system: male C57B1/6N mice with renal ischemia/reperfusion injury; conditions: cited from earlier work
[6] = test system: healthy volunteers given E. coli endotoxin; conditions: cited from earlier work
[7] = test system: murine polymicrobial sepsis model; conditions: cited from earlier work
[8] = test system: Streptozotocin-induced diabetic rats; assay: renal function and urinary protein leakage in streptozotocin-induced diabetic rats; type: in vivo, rat; conditions: 140 minutes i.v. infusion, 5 nmol x min(-1) x kg(-1) body wt
Description: Acute effects of 140 minutes i.v. infusion of heptapeptide with SEQ ID NO:8 (LQGVLPG; 5 nmol x min(-1) x kg(-1) body wt) on renal function and urinary protein leakage are studied in anesthetized diabetic male rats two weeks after streptozotocin injection without insulin treatment. Streptozotocin-induced diabetic rats are studied with (N = 12) and without heptapeptide (N = 11) treatment. The two groups show a similarly elevated blood glucose concentration during the study. Age-matched normal rats serve as controls (N = 5). Glomerular filtration rate (GFR) is measured by inulin clearance in the basal state and during a 60-minute glycine infusion (0.22 mmol x min(-1) x kg(-1) body wt)-resembling a protein load challenge-to test the renal functional reserve in all three groups.
In the basal state, the non-heptapeptide-treated diabetic rats display increased GFR and increased total protein leakage when compared with normal rats. Whereas normal rats respond to glycine infusion with an increase in GFR, no increase occurs in diabetic rats not treated with heptapeptide. In diabetic rats given heptapeptide, this reduces the initial glomerular hyperfiltration prior to glycine infusion. […] Thus, short-term infusion of heptapeptide has beneficial effects on protein leakage and hyperfiltration and improves the renal functional reserve in rats.

mTOR = conditions: cited from earlier work
[9] = test system: colonic inflammation induced by dextran sulfate sodium (DSS); conditions: Gln supplementation; cited from earlier work

LQGVAPG (Immunomodulatory peptide) [SEQ ID NO:6]
TNF-α, IL-6 and E-selectin mRNA transcript levels in the liver [1]: reduced | liver damage [1]: reduced | neutrophil infiltration into the liver [1]: reduced | systemic release of TNF-α and IL-6 [1]: prevents | beta-cell failure with diabetes development (occurrence of diabetes after the age of 17 weeks) [2]: significantly reduces

AQGV (Immunomodulatory peptide) [SEQ ID NO:2, synthetic linear glutamine-containing tetrapeptide derived from beta-human chorionic gonadotropin]
inflammatory response and mortality following high-dose lipopolysaccharide [3]: inhibit | renal function and allograft survival [4]: improved | survival after IRI ([5]; 20-50 mg/kg twice daily i.p. for four days, started 24 hours after IRI): markedly improved | CTGF up-regulation (marker of post-ischemic fibrosis) in renal tissue ([5]; four weeks after IRI): significantly less | tubular epithelial cell proliferation ([5]; mouse, in vivo): significantly enhanced | acute tubular injury ([5]; two days after IRI): diminished | endotoxin induced increase in plasma levels of IL-6, IL-8, IL-1RA, MCP-1, MIP-1α, MIP-1β and VCAM-1 ([6]; 180 mg/kg (highest dose)): significant attenuation | fever and flu-like symptoms ([6]; highest dose (180 mg/kg)): reduced | endotoxin induced increase in plasma levels of IL-6, IL-8, IL-1RA, MCP-1, MIP-1α, MIP-1β and VCAM-1 ([6]; lower doses (30, 90 mg/kg)): not with the lower doses tested

AQGVAPG (Immunomodulatory peptide) [SEQ ID NO:5]
TNF-α, IL-6 and E-selectin mRNA transcript levels in the liver [1]: reduced | liver damage [1]: reduced | neutrophil infiltration into the liver [1]: reduced | systemic release of TNF-α and IL-6 [1]: prevents | beta-cell failure with diabetes development (occurrence of diabetes after the age of 17 weeks) [2]: significantly reduces

LQGV (Immunomodulatory peptide) [SEQ ID NO:1, synthetic linear glutamine-containing tetrapeptide derived from beta-human chorionic gonadotropin]
inflammatory response and mortality following high-dose lipopolysaccharide [3]: inhibit | survival during the first 5 days after moderate cecal ligation and puncture ([7]; 5 mg/kg bodyweight, control 20%): 50% | survival in severe cecal ligation and puncture model ([7]; 5 mg/kg combined with fluid resuscitation and antibiotics, fluid resuscitation and antibiotics alone 30%): 70% | cytokine and E-selectin levels in peritoneal lavage fluid, lungs and plasma ([7]; moderate cecal ligation and puncture, 5 mg/kg): reduced | pulmonary nuclear factor-κB activation and pulmonary damage ([7]; mouse, in vivo): reduced

LQGVLPG (Immunomodulatory peptide) [SEQ ID NO:8]
TNF-α, IL-6 and E-selectin mRNA transcript levels in the liver [1]: reduced | liver damage [1]: reduced | neutrophil infiltration into the liver [1]: reduced | systemic release of TNF-α and IL-6 [1]: prevents | beta-cell failure with diabetes development (occurrence of diabetes after the age of 17 weeks) [2]: significantly reduces | initial glomerular hyperfiltration (GFR) prior to glycine infusion [8]: reduces | renal functional reserve (GFR response to glycine infusion) [8]: restores normal | total protein leakage compared with rats not given heptapeptide [8]: lower

NC(=O)CC[C@H](N)C(=O)O [L-Glutamine]
activity as activators of mTOR or inhibitors of autophagy compared with other amino acids (mTOR; alone or in combination): more potent | mTOR associated autophagic inhibitory effects on human cells (mTOR; human cells): most prominent | degree of microscopic injury induced by dextran sulfate sodium (DSS) [9]: attenuated
